Measurements as given in US8398987B2, “Use of platelet glycopeptide IIIa epitopes in the treatment of immune thrombocytopenic purpura” (The University Court of the University of Aberdeen, priority 2007, dated 2013).
Entries after “also recorded” stand apart in the source; their conditions may differ.

What was measured:
Format in all cases: cell-based, human
PBMC from AITP patients = assay: T cell proliferation assay, PBMC from AITP patients stimulated with GPIIIa peptides; parameters: PBMC proliferation to control recall antigen or mitogen: dose or concentration left out as unconfirmed; conditions: for AITP Patients with PBMC Response to Peptide, High Affinity DR Expressed: patients expressing an HLA-DR type predicted to bind the peptide with high affinity; for AITP Patients with PBMC Response to Peptide, No High Affinity DR Expressed: patients not expressing an HLA-DR type predicted to bind the peptide with high affinity; for PBMC proliferation in serial samples: patient AITP22, three occasions over 56 weeks (presentation, 44 weeks, 56 weeks)
Text: (§1) The human platelet membrane GPIIIa amino acid sequence (Genebank Accession no: M35999) was synthesized (Pepceuticals, Nottingham, UK) as a complete panel of 86 15-mer peptides, overlapping by 5-10 amino acids (Table 3). Peptide purity was monitored by amino acid analysis and mass spectrometry as reported previously by Barker R N et al in Blood 1997; 90:2701-2715, Scott L et al in Blood 2000; 96:4011-4019 and Cairns L S et al in J Am Soc Nephrol 2003; 14:2801-2812. The peptides were used for stimulation of T cells at the previously determined optimum concentration of […] in culture.
(§2) The antigen mycobacterial purified protein derivative (PPD) (Statens Serumintitut, Denmark) was added to cultures at […] to stimulate positive control recall T cell responses. Concanavalin A (Con A) (Sigma, Poole, Dorset, UK) was used at […] as a positive control T cell mitogen.
Mononuclear cells were recovered from anti-coagulated samples of peripheral blood from AITP patients and control donors by density gradient centrifugation (Lymphoprep; Nycomed, Denmark). Cell viability determined by trypan blue exclusion was greater than 90% in all samples.
Assays of T cell proliferation were carried out, as described by Scott L et al in Blood 2000; 96:4011-4019, Cairns L S et al in J Am Soc Nephrol 2003; 14:2801-2812 and Sukati H et al in Transfusion 2005; 45:1165-1177, under culture conditions designed to favor responses by previously activated T cells, rather than primary responses. Briefly, PBMC were cultured at 1.25×10^6 cells per mL in Alpha Modification of Eagle's Medium (Sigma, Poole, Dorset, UK) supplemented with 5% autologous serum. Synthetic GPIIIa peptides or control stimuli were added to cultures, which were incubated at 37° C. in a humidified atmosphere of 95% air and 5% CO2. T cell proliferation was estimated from the incorporation of 3H-thymidine in triplicate […] samples withdrawn from the cultures 5 days after stimulation, when recall responses peak. Results are presented either as the mean counts per minute (CPM)±SD of the triplicate samples, or as a stimulation index (SI) expressing the ratio of mean CPM in stimulated versus unstimulated control cultures. An SI>3 is interpreted as a positive response.

[1] = system: PBMC from healthy control donors; assay: T cell proliferation assay, PBMC from healthy control donors
Text: as §1, §2
Mononuclear cells were recovered from anti-coagulated samples of peripheral blood from AITP patients and control donors by density gradient centrifugation (Lymphoprep; Nycomed, Denmark). Cell viability determined by trypan blue exclusion was greater than 90% in all samples. […]

[2] = system: HLA-class II molecules (HLA-DR, -DQ, -DP); assay: HLA restriction of PBMC proliferating in response to GPIIIa peptides (blocking antibodies); conditions: PBMC from four AITP patients
Procedure: To determine the HLA Class II restriction of proliferating T cells, […] anti-DR, anti-DQ or anti-DP blocking monoclonal antibodies (Pharmingen, Oxon, UK) were added to replicate cultures before stimulation.
Dominant peptides 2(aa6-20), 47 (aa361-375), 53 (aa421-435) and 82 (aa711-725) were selected for these experiments and used to stimulate PBMC from four AITP patients, in the presence or absence of anti-DP, -DQ or DR. Representative results from one patient are illustrated in FIG. 7.

GVLSMDSSNVLQLIV (listed as Homo sapiens) [compound 44, GPIIIa residues 331-345]
AITP Patients with PBMC Response to Peptide, High Affinity DR Expressed (PBMC from AITP patients): AITP8,; also recorded: AITP24 | AITP Patients with PBMC Response to Peptide, No High Affinity DR Expressed (PBMC from AITP patients): AITP1,; also recorded: AITP3,; also recorded: AITP10,; also recorded: AITP18,; also recorded: AITP21,

CECDDFSCVRYKGEM (listed as Homo sapiens) [compound 63, GPIIIa residues 521-535]
Stimulatory Peptides (SI > 3) (PBMC from AITP patients; PBMC from patient AITP26): > 63

Concanavalin A [Con A, reference compound]
PBMC proliferation to control recall antigen or mitogen (PBMC from AITP patients; PBMC from all patients and control donors): proliferated normally

ALLIWKLLITIHDRK (listed as Homo sapiens) [peptide 82, GPIIIa residues 711-725]
PBMC proliferation in serial samples (PBMC from AITP patients): initially absent but appeared at later time points | AITP Patients with PBMC Response to Peptide, No High Affinity DR Expressed (PBMC from AITP patients): AITP12 | stimulation of PBMC from control donors [1]: only dominant sequence to induce proliferation by Th cells from control donors; also recorded: more than one control donor | blocking of peptide-induced proliferation by anti-DP, -DQ or -DR [2]: blocked by at least one of the antibodies

FKDSLIVQVTFDCDC (listed as Homo sapiens) [compound 53, GPIIIa residues 421-435]
PBMC proliferation in serial samples (PBMC from AITP patients): initially absent but appeared at later time points | AITP Patients with PBMC Response to Peptide, High Affinity DR Expressed (PBMC from AITP patients): AITP11,; also recorded: AITP-12,; also recorded: AITP18,; also recorded: AITP20 | AITP Patients with PBMC Response to Peptide, No High Affinity DR Expressed (PBMC from AITP patients): AITP1,; also recorded: AITP8,; also recorded: AITP9,; also recorded: AITP10,; also recorded: AITP22,; also recorded: AITP24 | blocking of peptide-induced proliferation by anti-DP, -DQ or -DR [2]: blocked by at least one of the antibodies

DDCVVRFQYYEDSSG (listed as Homo sapiens) [peptide 77, GPIIIa residues 661-675]
PBMC proliferation in serial samples (PBMC from AITP patients): seen only in the second sample | AITP Patients with PBMC Response to Peptide, High Affinity DR Expressed (PBMC from AITP patients): AITP11,; also recorded: AITP16,; also recorded: AITP22 | AITP Patients with PBMC Response to Peptide, No High Affinity DR Expressed (PBMC from AITP patients): AITP2,; also recorded: AITP8

PGSYGDTCEKCPTCP (listed as Homo sapiens) [compound 70, GPIIIa residues 591-605]
AITP Patients with PBMC Response to Peptide, High Affinity DR Expressed (PBMC from AITP patients): None | AITP Patients with PBMC Response to Peptide, No High Affinity DR Expressed (PBMC from AITP patients): AITP2,; also recorded: AITP7,; also recorded: AITP15,; also recorded: AITP20,; also recorded: AITP24

DLPEELSLSFNATCL (listed as Homo sapiens) [compound 47, GPIIIa residues 361-375]
PBMC proliferation in serial samples (PBMC from AITP patients): initially absent but appeared at later time points | AITP Patients with PBMC Response to Peptide, High Affinity DR Expressed (PBMC from AITP patients): None | blocking of peptide-induced proliferation by anti-DP, -DQ or -DR [2]: blocked by at least one of the antibodies

TTRGVSSCQQCLAVS (listed as Homo sapiens) [peptide 2, GPIIIa residues 6-20]
PBMC proliferation in serial samples (PBMC from AITP patients): elicited proliferation from all samples | AITP Patients with PBMC Response to Peptide, High Affinity DR Expressed (PBMC from AITP patients): None | blocking of peptide-induced proliferation by anti-DP, -DQ or -DR [2]: blocked by at least one of the antibodies
